Each block holds one compound with its values, some of them ahead of it.
Tests used:
[1] = tested on: MRP1-MDR1 chimeras; assay type: biochemical, human; conditions: pretreatment with 1 mM
Procedure: (§1) The filters were washed twice with 0.5 ml of cold transport buffer, and filter-bound radioactivity was measured in scintillation fluid (Optifluor, Packard). ATP-dependent transport was calculated by subtracting the activity values obtained with AMP from those in the presence of ATP.
Covalent photoaffinty labeling of the proteins was performed with Mg-8-azido-[α-^32P)-ATP in the presence of vanadate as a trapping agent (set Materials and Methods).

[2] = molecular target: MRP1 variants (Homo sapiens, UniProt P33527); assay: Vanadate-dependent nucleotide trapping by MRP1 variants in Sf9 membranes; conditions: pretreatment with 1 mM
[3] = molecular target: co-expressed ΔMRP1+L0 (Homo sapiens, UniProt P33527); assay: ATP-dependent tracer (LTC4, NEM-GS) uptake in Sf9 membrane vesicles containing co-expressed ΔMRP1 and L0; conditions: read-out: Km for transport of NEM-GS
Procedure: as §1

[4] = molecular target: MRP1 (Homo sapiens, UniProt P33527); assay: ATP-dependent tracer (LTC4, NEM-GS) uptake in Sf9 membrane vesicles containing MRP1; conditions: 37° C.
Procedure: as §1

[5] = tested on: murine and human cells expressing MRP; conditions: cited from earlier work

Sequence of MRP1 (P33527 whole entry): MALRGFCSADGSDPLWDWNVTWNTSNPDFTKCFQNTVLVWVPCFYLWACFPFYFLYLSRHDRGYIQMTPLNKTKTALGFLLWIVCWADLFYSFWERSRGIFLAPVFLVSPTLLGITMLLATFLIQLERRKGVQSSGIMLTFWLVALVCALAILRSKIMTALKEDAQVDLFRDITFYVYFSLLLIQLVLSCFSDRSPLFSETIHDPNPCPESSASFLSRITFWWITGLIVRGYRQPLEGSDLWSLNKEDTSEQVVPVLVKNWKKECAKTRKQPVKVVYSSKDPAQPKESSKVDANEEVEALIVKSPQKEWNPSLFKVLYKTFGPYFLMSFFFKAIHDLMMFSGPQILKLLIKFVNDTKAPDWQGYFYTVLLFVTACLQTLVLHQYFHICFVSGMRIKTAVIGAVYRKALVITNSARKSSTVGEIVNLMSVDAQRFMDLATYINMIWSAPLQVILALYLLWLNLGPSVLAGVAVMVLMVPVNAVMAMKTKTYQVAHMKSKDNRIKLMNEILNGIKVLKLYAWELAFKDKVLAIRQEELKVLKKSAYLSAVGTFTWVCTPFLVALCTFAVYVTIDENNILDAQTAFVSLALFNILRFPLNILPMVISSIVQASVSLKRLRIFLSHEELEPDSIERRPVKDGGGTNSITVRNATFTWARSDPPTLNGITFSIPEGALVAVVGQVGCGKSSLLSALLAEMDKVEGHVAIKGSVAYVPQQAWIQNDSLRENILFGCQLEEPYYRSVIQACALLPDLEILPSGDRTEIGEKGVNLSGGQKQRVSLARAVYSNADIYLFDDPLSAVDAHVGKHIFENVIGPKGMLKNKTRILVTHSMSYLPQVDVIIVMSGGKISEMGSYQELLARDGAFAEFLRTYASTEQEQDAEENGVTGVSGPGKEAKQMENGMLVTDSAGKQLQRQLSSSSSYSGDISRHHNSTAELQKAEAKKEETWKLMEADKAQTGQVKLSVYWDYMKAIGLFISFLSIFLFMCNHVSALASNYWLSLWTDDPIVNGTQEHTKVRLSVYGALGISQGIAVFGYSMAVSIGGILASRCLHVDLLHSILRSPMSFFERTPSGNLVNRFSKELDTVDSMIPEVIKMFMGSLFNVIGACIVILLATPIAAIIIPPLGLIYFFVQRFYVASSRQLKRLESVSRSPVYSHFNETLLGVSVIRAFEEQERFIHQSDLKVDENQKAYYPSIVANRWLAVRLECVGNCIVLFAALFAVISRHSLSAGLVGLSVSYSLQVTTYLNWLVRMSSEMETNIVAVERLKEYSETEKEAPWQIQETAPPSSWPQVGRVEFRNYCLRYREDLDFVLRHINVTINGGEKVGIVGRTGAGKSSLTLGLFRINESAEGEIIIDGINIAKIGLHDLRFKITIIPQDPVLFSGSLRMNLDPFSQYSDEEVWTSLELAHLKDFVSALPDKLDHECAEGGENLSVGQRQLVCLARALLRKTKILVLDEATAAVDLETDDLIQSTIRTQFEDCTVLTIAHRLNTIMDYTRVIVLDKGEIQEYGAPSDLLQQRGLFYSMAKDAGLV
Sequence of MRP1 variants (P33527 281-1531): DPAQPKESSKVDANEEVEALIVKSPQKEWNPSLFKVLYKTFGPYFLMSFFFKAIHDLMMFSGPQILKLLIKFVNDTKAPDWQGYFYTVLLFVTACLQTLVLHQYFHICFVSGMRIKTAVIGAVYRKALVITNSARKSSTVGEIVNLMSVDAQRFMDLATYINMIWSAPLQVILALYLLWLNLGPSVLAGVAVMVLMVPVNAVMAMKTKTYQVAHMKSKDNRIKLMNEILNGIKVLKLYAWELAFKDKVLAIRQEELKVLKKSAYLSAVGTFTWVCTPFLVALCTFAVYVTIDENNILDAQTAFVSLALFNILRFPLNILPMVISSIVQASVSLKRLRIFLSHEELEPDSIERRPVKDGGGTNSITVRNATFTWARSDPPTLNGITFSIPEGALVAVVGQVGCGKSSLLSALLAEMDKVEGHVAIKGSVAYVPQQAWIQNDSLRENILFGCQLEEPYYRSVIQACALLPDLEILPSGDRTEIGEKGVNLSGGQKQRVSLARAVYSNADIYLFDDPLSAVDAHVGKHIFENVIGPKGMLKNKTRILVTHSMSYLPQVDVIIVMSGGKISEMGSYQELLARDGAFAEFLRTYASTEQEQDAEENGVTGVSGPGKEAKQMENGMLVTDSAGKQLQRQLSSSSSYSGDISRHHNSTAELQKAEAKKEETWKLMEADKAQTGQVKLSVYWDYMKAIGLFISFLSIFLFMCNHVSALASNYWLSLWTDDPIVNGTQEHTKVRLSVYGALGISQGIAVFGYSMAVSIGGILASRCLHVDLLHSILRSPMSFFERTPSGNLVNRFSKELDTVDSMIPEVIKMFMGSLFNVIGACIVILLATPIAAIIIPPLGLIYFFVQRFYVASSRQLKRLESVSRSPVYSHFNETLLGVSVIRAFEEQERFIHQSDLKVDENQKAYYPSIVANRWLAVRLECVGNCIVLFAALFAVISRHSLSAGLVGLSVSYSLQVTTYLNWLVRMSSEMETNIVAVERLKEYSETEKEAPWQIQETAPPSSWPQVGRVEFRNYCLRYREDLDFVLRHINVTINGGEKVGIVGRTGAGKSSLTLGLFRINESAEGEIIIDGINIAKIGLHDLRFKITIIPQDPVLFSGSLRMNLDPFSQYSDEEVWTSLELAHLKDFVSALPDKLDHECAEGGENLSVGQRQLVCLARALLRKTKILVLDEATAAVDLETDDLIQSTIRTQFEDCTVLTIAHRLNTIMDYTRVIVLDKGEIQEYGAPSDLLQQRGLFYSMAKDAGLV
Sequence of MRP1 variants (P33527 with tags, fused parts or gaps): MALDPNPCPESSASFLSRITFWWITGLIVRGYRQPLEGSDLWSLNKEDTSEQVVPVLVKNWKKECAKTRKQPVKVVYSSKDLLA
Sequence of co-expressed ΔMRP1+L0 (P33527 281-1531, stated change not applied): as the sequence (P33527 281-1531) above
Sequence of co-expressed ΔMRP1+L0 (P33527 204-281, stated change not applied): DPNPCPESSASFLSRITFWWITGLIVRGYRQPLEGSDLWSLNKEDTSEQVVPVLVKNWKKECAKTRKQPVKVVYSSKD

inhibition of nucleotide trapping [2]: full inhibition
SMILES: CCN1C(=O)C=CC1=O [N-ethylmaleimide]
inhibition of nucleotide trapping [1]: full inhibition

Km [3]: ~400 µM
initial rate of ATP-dependent NEM-GS transport ([4]; 50 μM NEM-GS, MRP1 containing membranes): about 250 pmol mg^−1
Km ([4]; read-out: Km for transport of NEM-GS, wild-type MRP1, Sf9 membrane vesicles): 150 µM
SMILES: CCN1C(=O)CC(SC[C@H](NC(=O)CC[C@H](N)C(=O)O)C(=O)NCC(=O)O)C1=O (stereo partly drawn) [NEM-GS]

SMILES: COc1ccc2c(c1)c(CC(=O)O)c(C)n2C(=O)c1ccc(Cl)cc1 [indomethacine]
efflux of fluorescent dye BCECF [5]: effectively inhibited
